Data published in patent US20040161794A1 (The General Hospital Corporation, priority 2002, published 2004).

Experiments:
PC12 cells = details: added to the culture media of PC12 cells; cited from earlier work
rat hypothalamic tissue = details: injected intravenously or included in the in vitro incubation of rat hypothalamic tissue; cited from earlier work
Na^+ pump = biological target: T1, Na^+ pump (Homo sapiens, UniProt P05023); assay: Inhibition of Na+ pump activity (active Rb+ uptake) in human erythrocytes; assay type: cell-based; details: 1 mM, standard
T1 construct: measuring active ^86Rb^+(K^+ analogue) transport into human erythrocytes; endogenous in cells; host or cells: human erythrocytes
Method: After purifying the conditioned medium by reverse-phase column chromatography (Sep-Pak, Waters), the resulting sample was assayed using the ^86Rb uptake assay to determine a change in inhibition as previously described in Carilli et al., J. Biol. Chem., 260:1027-1031 (1985).
PC12 cells are studied for the presence of the genes of interest, then the release of inhibitor from these cells is confirmed using the method of Komiyama (Komiyama et al., J. Hypertens., 19:229-236 (2001)). Collected supernatants are acidified to dissociate OLC from putative carrier proteins, and purified using Sep-Pak C18 cartridges eluted with acetonitrile.

cultured rat myocytes = details: cited from earlier work
[1] = system: vascular rings from rat pulmonary artery and aorta; details: in vitro; cited from earlier work

## CC(=O)[C@H]1CC[C@H]2[C@@H]3CCC4=CC(=O)CC[C@]4(C)[C@H]3CC[C@]12C [progesterone]
PC12 cells
  amount of OLC release into culture supernatants: augmented in a dose-dependent manner

## CC[C@H](C)[C@@H]1NC(=O)[C@H](CCCNC(=N)N)NC(=O)[C@H](CC(=O)O)NC(=O)[C@H](CCSC)NC(=O)[C@H](CCCNC(=N)N)NC(=O)CNC(=O)CNC(=O)[C@H](Cc2ccccc2)NC(=O)[C@@H](NC(=O)[C@H](CO)NC(=O)[C@H](CO)NC(=O)[C@H](CCCNC(=N)N)NC(=O)[C@H](CCCNC(=N)N)NC(=O)[C@H](CC(C)C)NC(=O)[C@@H](N)CO)CSSC[C@@H](C(=O)N[C@@H](CC(N)=O)C(=O)N[C@@H](CO)C(=O)N[C@@H](Cc2ccccc2)C(=O)N[C@@H](CCCNC(=N)N)C(=O)N[C@@H](Cc2ccc(O)cc2)C(=O)O)NC(=O)CNC(=O)[C@H](CC(C)C)NC(=O)CNC(=O)[C@H](CO)NC(=O)[C@H](CCC(N)=O)NC(=O)[C@H](C)NC(=O)CNC1=O [atrial natriuretic peptide]
Rat hypothalamic tissue
  release of the Na+,K+-ATPase inhibitor: decreased the release

## C[C@@H]1O[C@@H](O[C@H]2C[C@@H](O)[C@]3(CO)[C@H]4[C@H](O)C[C@]5(C)[C@@H](C6=CC(=O)OC6)CC[C@]5(O)[C@@H]4CC[C@]3(O)C2)[C@H](O)[C@H](O)[C@H]1O [ouabain]
Na^+ pump
  inhibition of active Na+ transport: Complete inhibition
Cultured rat myocytes
  toxicity at the same intracellular Ca++ concentration: toxic
[1]
  effect on isolated vascular rings: unaffected by Oua except at toxic concentrations
